Values quoted from earlier work, collected in patent US7345028B1, “Energy-protective composition comprising adenosine phosphates” (priority 2002, dated 2008).

Test system: experimental animals
Conditions: administered prior to and after gamma irradiation

SMILES: Nc1ncnc2c1ncn2[C@@H]1O[C@H](COP(=O)(O)OP(=O)(O)O)[C@@H](O)[C@H]1O [adenosine diphosphate]
- protective action against irradiation: protective action
